Where two headings read alike, the source gives them in different places.

The experiment deals with PKM2 (Homo sapiens, UniProt P14618). Description: PKM2 activation biochemical assay (AC50 / max. response vs fructose 1,6-bisphosphate). The settings on record: for Max. Resp. (%): % maximum response in a biochemical assay as compared with Fructose 1,6-bisphosphate.
[1] abbreviates: biochemical assay, read-out: PKM2 AC50.

Chain of PKM2 (P14618 whole entry): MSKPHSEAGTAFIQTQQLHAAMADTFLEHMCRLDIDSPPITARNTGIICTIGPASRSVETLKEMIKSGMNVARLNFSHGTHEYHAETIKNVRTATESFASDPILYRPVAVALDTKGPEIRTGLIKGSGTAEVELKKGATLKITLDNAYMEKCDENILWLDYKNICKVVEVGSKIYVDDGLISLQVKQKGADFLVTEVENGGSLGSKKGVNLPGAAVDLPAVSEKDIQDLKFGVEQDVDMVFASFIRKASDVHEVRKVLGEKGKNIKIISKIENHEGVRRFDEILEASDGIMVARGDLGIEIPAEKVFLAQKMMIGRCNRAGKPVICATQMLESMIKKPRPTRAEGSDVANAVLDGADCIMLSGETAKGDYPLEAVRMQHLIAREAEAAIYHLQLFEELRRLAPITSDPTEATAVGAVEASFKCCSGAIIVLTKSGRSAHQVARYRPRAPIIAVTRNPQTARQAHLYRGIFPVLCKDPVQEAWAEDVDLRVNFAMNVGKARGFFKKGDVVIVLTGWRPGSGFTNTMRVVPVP

By AC50 is commonly meant the concentration at which the activity in the assay is half-maximal. With `CC1CCCCN1CCN(Cc1ccccc1Cl)C(=O)c1cc(C(F)(F)F)n[nH]1` (stereo not drawn) [Compound 192], the “Max. Resp. (%)” value amounted to 100%. In addition, the AC50 under setting [1] is 104 nM.

For the compound `Nc1cccc(Cl)c1CN(CCN1CCCCCC1)C(=O)c1cc(C(F)(F)F)n[nH]1` [Compound 218], the “Max. Resp. (%)” value is on record as 100%. Further, under setting [1], the AC50 turned out to be 41 nM.

For `CO[C@H]1CC[C@H](N(Cc2c(F)cccc2F)C(=O)c2cc(C(F)(F)F)n[nH]2)CC1` [Compound 49], the “Max. Resp. (%)” value turned out to be 122%. Further, the AC50 under setting [1] was determined as 914 nM.

Turning to `CCN(CC)CCN(Cc1cc(N)ccc1Cl)C(=O)c1cc(C(F)(F)F)n[nH]1` [Compound 183], the “Max. Resp. (%)” value is given as 100%. Further, the AC50 under setting [1] was 185 nM.

With `COC1CCN(CCN(Cc2c(N)cccc2Cl)C(=O)c2cc(C(F)(F)F)n[nH]2)C1` (stereo not drawn) [Compound 235], the “Max. Resp. (%)” value turned out to be 100%. Also, the AC50 under setting [1] came to 133 nM.

Regarding `O=C(c1cc(C(F)(F)F)n[nH]1)N(CCN1CCCCCC1)Cc1ccc(O)cc1Cl` [Compound 194], the “Max. Resp. (%)” value is reported as 100%. For the same compound, the AC50 under setting [1] was 43 nM.

On to `CCN(CC)CCN(Cc1cccc2[nH]ccc12)C(=O)c1cc(C(F)(F)F)n[nH]1` [Compound 161], for which the “Max. Resp. (%)” value came out at 100%. For the same compound, the AC50 under setting [1] worked out at 76 nM.

Consider `Cc1cn2c(=O)cc(Cn3cnc4ccccc43)nc2s1` [PP17], for which the AC50 under setting [1] turned out to be 466 nM.

For the compound `O=C(c1cc(C(F)(F)F)n[nH]1)N(CCC1CCC2(CC1)OCCO2)Cc1ccccc1F` [Compound 59], the “Max. Resp. (%)” value was 100%. Besides, the AC50 under setting [1] was found to be 494 nM.

Turning to `O=C(c1cc(C(F)(F)F)n[nH]1)N(CCN1CCCCC1)Cc1c(F)cccc1Cl` [Compound 179], the “Max. Resp. (%)” value was found to be 100%. Moreover, under setting [1], the AC50 was found to be 133 nM.

As to `O=C(c1cc(C(F)(F)F)n[nH]1)N(CCC1CCOCC1)Cc1ccccc1F` [Compound 41], the “Max. Resp. (%)” value was determined as 118%. Besides, the AC50 under setting [1] was 1260 nM.

As to `Nc1cccc(Cl)c1CN(CCN1CCC(O)C1)C(=O)c1cc(C(F)(F)F)n[nH]1` (stereo not drawn) [Compound 234], the “Max. Resp. (%)” value is on record as 100%. Further, the AC50 under setting [1] was determined as 111 nM.

Regarding `O=C(c1cc(C(F)(F)F)n[nH]1)N(CCC1CCS(=O)(=O)CC1)Cc1ccc(O)cc1F` [Compound 87], the “Max. Resp. (%)” value came out at 100%. Moreover, the AC50 under setting [1] amounted to 64 nM.

As for `CO[C@H]1CC[C@H](N(Cc2cc(F)ccc2F)C(=O)c2cc(C(F)(F)F)n[nH]2)CC1` [Compound 50], half-maximal activity (AC50) was put at 1670 nM and the “Max. Resp. (%)” value stood at 90%.

On to `O=C(c1cc(C(F)(F)F)n[nH]1)N(CCC1CCS(=O)(=O)C1)Cc1ccc(O)cc1F` (stereo not drawn) [Compound 76], for which the “Max. Resp. (%)” value worked out at 93%. Besides, the AC50 under setting [1] was 54 nM.

For `CN1CCN(CCN(Cc2ccccc2Cl)C(=O)c2cc(C(F)(F)F)n[nH]2)CC1` [Compound 104], the “Max. Resp. (%)” value turned out to be 63%. Moreover, the AC50 under setting [1] was determined as 17000 nM.

Regarding `O=C(c1cc(C(F)(F)F)n[nH]1)N(CCN1CCCCCC1)Cc1cccc([N+](=O)[O-])c1Cl` [Compound 210], the activity was half-maximal at 133 nM (AC50) and the “Max. Resp. (%)” value is on record as 100%.

For `O=C(c1cc(C(F)(F)F)n[nH]1)N(Cc1cccc2[nH]cnc12)CC1CCC1` [Compound 123], the AC50 turned out to be 828 nM and the “Max. Resp. (%)” value is 100%.

As to `O=C(CCSC(=S)NCc1cccnc1)c1ccccc1` [PMA8], the “Max. Resp. (%)” value is 24%. Moreover, under setting [1], the AC50 amounted to 7640 nM.

With `CCN(CC)CCN(Cc1c(F)cccc1Cl)C(=O)c1cc(C(F)(F)F)n[nH]1` [Compound 172], the “Max. Resp. (%)” value was 100%. Under setting [1], the AC50 is 94 nM.

With `O=C(c1cc(C(F)(F)F)n[nH]1)N(CCN1CCCC(O)C1)Cc1ccccc1Cl` (stereo not drawn) [Compound 220], the “Max. Resp. (%)” value was 100%. Under setting [1], the AC50 worked out at 465 nM.

As for `O=C(c1cc(C(F)(F)F)n[nH]1)N(CCN1CCCC1)Cc1ccccc1Cl` [Compound 162], the AC50 came to 107 nM and the “Max. Resp. (%)” value is listed as 100%.

For `CCN(CC)CCN(Cc1cccc(F)c1Cl)C(=O)c1cc(C(F)(F)F)n[nH]1` [Compound 182], half-maximal activity (AC50) was put at 109 nM and the “Max. Resp. (%)” value is given as 100%.

On to `CCOCCN(Cc1ccccc1F)C(=O)c1cc(C(F)(F)F)n[nH]1` [Compound 30], for which the “Max. Resp. (%)” value was 72%.

Take `O=C(c1cc(C(F)(F)F)n[nH]1)N(Cc1ccc(O)cc1Cl)CC1CCC1` [Compound 124]: the “Max. Resp. (%)” value is listed as 100%. Moreover, the AC50 under setting [1] was 21 nM.

With `Nc1ccc(Cl)c(CN(CCN2CCCCCC2)C(=O)c2cc(C(F)(F)F)n[nH]2)c1` [Compound 196], the “Max. Resp. (%)” value is recorded as 100%. Under setting [1], the AC50 is 99 nM.

Turning to `O=C(c1cc(C(F)(F)F)n[nH]1)N(CCN1CCCCCC1)Cc1c(Cl)cccc1[N+](=O)[O-]` [Compound 211], the “Max. Resp. (%)” value worked out at 100%. Under setting [1], the concentration at half-maximal activity (AC50) was found to be 123 nM.

Take `O=C(CCSC(=S)NCc1cccnc1)c1ccccc1Cl` [PMA19]: the “Max. Resp. (%)” value is 63%. Also, under setting [1], the AC50 is 5610 nM.

In the case of `Cc1ccn2c(=O)cc(Cn3cnc4ccccc43)nc2c1` [PP9], the AC50 under setting [1] was 216 nM.

Consider `O=C(c1cc(C(F)(F)F)n[nH]1)N(CCN1CCCCCC1)Cc1ccccc1F` [Compound 197], for which the “Max. Resp. (%)” value is 100%. Moreover, the AC50 under setting [1] came out at 63 nM.

With `O=C(c1cc(Br)n[nH]1)N(Cc1ccc(O)cc1F)CC1CNC1` [Compound 11], half-maximal activity (AC50) was put at 10400 nM and the “Max. Resp. (%)” value came to 61%.

Turning to `O=C(c1cc(C(F)(F)F)n[nH]1)N(CCC(F)(F)F)Cc1ccc(O)cc1F` [Compound 130], the “Max. Resp. (%)” value came to 100%. Also, the AC50 under setting [1] was 1000 nM.

On to `COc1cccc(NS(=O)(=O)c2cc3c(cc2Cl)NC(=O)CO3)c1` [PP20], for which the “Max. Resp. (%)” value came to 108%. Moreover, the AC50 under setting [1] was determined as 153 nM.

For the compound `CCOCCCN(Cc1ccccc1Cl)C(=O)c1cc(C(F)(F)F)n[nH]1` [Compound 38], the “Max. Resp. (%)” value came to 47%. Besides, the AC50 under setting [1] turned out to be 33000 nM.

Take `CCN(CC)CCN(Cc1ccccc1Cl)C(=O)c1[nH]nc(Cl)c1F` [Compound 193]: the “Max. Resp. (%)” value is 58%. Also, the AC50 under setting [1] was 14000 nM.

Consider `CO[C@H]1CC[C@H](N(Cc2ccccc2F)C(=O)c2cc(C(F)(F)F)n[nH]2)CC1` [Compound 47], for which the “Max. Resp. (%)” value stood at 89%. The AC50 under setting [1] amounted to 435 nM.

For the compound `O=C(c1cc(C(F)(F)F)n[nH]1)N(CCN1CCS(=O)(=O)CC1)Cc1c(Cl)cccc1Cl` [Compound 110], the “Max. Resp. (%)” value is recorded as 84%. In addition, the AC50 under setting [1] worked out at 1640 nM.

As to `O=C(c1cc(C(F)(F)F)n[nH]1)N(CCC1CCS(=O)(=O)C1)Cc1ccccc1Cl` (stereo not drawn) [Compound 62], half-maximal activity (AC50) was put at 273 nM and the “Max. Resp. (%)” value came out at 105%.

Regarding `O=C(c1cc(C(F)(F)F)n[nH]1)N(CCC1CCS(=O)(=O)C1)Cc1cccc(F)c1F` (stereo not drawn) [Compound 68], the “Max. Resp. (%)” value came out at 103%. For the same compound, the AC50 under setting [1] is 766 nM.

For the compound `O=C(CCSC(=S)NCc1cccnc1)c1ccc(F)c(F)c1` [PMA21], the “Max. Resp. (%)” value is listed as 42%. Also, under setting [1], the AC50 is greater than 20000 nM.

For the compound `O=C(c1cc(C(F)(F)F)n[nH]1)N(CCC1CC[S+]([O-])CC1)Cc1ccccc1Cl` (stereo not drawn) [Compound 74], the “Max. Resp. (%)” value worked out at 95%. For the same compound, the AC50 under setting [1] was found to be 640 nM.

For the compound `CCN(CC)CCN(Cc1ccc(O)cc1F)C(=O)c1cc(C(F)(F)F)n[nH]1` [Compound 143], the “Max. Resp. (%)” value is given as 100%. Also, the AC50 under setting [1] was 108 nM.

With `O=C(c1cc(C(F)(F)F)n[nH]1)N(Cc1cccc2[nH]ccc12)CC1COC1` [Compound 12], the “Max. Resp. (%)” value was 101%. Moreover, under setting [1], the AC50 amounted to 3270 nM.

For `CC1CCCN(CCN(Cc2cc(N)ccc2Cl)C(=O)c2cc(C(F)(F)F)n[nH]2)C1` (stereo not drawn) [Compound 200], the “Max. Resp. (%)” value is 100%. The AC50 under setting [1] was 130 nM.

`O=C(c1cc(Br)n[nH]1)N(CCC1CCS(=O)(=O)CC1)Cc1ccccc1F` [Compound 83]: the “Max. Resp. (%)” value came out at 98%. Moreover, under setting [1], the AC50 was 1100 nM.

Consider `Nc1cccc(Cl)c1CN(CCN1CC[C@@H](F)C1)C(=O)c1cc(C(F)(F)F)n[nH]1` [Compound 242], for which the activity was half-maximal at 465 nM (AC50) and the “Max. Resp. (%)” value is 100%.

Consider `O=C(c1cc(C(F)(F)F)n[nH]1)N(CCN1CCCCCC1)Cc1cccc2nc[nH]c12` [Compound 208], for which the “Max. Resp. (%)” value is recorded as 100%. For the same compound, under setting [1], the AC50 was 125 nM.

Take `CCN(CC)CCN(Cc1cc(Cl)ccc1Cl)C(=O)c1cc(C(F)(F)F)n[nH]1` [Compound 168]: the “Max. Resp. (%)” value was 100%. Further, under setting [1], the AC50 was 97 nM.

Turning to `O=C(c1cc(Cl)n[nH]1)N(CCC1CCS(=O)(=O)CC1)Cc1ccccc1F` [Compound 81], the AC50 is 1370 nM and the “Max. Resp. (%)” value is given as 72%.

As to `O=C(c1cc(C(F)(F)F)n[nH]1)N(CCN1CCCC1)Cc1c(Cl)cccc1Cl` [Compound 178], the “Max. Resp. (%)” value is 100%. Besides, the AC50 under setting [1] turned out to be 126 nM.

On to `Nc1ccc(F)c(CN(CCN2CCCCCC2)C(=O)c2cc(C(F)(F)F)n[nH]2)c1` [Compound 214], for which the “Max. Resp. (%)” value came out at 100%. Also, the AC50 under setting [1] was 153 nM.

For `O=C(c1cc(C(F)(F)F)n[nH]1)N(CCC1CCSCC1)Cc1c(F)cccc1F` [Compound 84], the “Max. Resp. (%)” value was 73%. For the same compound, the AC50 under setting [1] amounted to 697 nM.

In the case of `O=C(c1cc(C(F)(F)F)n[nH]1)N(CCC1CCS(=O)(=O)C1)Cc1ccncc1` (stereo not drawn) [Compound 89], the “Max. Resp. (%)” value came to 35%. Moreover, under setting [1], the AC50 was 58000 nM.

For `CCN(CC)CCN(Cc1cccc2[nH]cnc12)C(=O)c1cc(C(F)(F)F)n[nH]1` [Compound 160], the “Max. Resp. (%)” value came to 100%. Further, the AC50 under setting [1] is 825 nM.

Take `O=C(c1cc(C(F)(F)F)n[nH]1)N(CCc1ccc(O)cc1)Cc1ccccc1Cl` [Compound 230]: the “Max. Resp. (%)” value was found to be 100%. Also, the AC50 under setting [1] worked out at 12000 nM.

For the compound `O=C(c1cc(C(F)(F)F)n[nH]1)N(CCN1CCCCCC1)Cc1c(F)cccc1F` [Compound 198], the “Max. Resp. (%)” value came to 100%. Besides, the AC50 under setting [1] is 130 nM.

Regarding `CS(=O)(=O)N1CCCC(CCN(Cc2ccccc2Cl)C(=O)c2cc(C(F)(F)F)n[nH]2)C1` (stereo not drawn) [Compound 228], the “Max. Resp. (%)” value is recorded as 100%. Also, the AC50 under setting [1] came out at 2000 nM.

(Values after patent US20200237766A1, “PKM2 ACTIVATORS IN COMBINATION WITH REACTIVE OXYGEN SPECIES FOR TREATMENT OF CANCER” (TOLERO PHARMACEUTICALS, INC., priority 2017, published 2020).)
